How the values were obtained:
Recombinant CYB5R3 = molecular target: T1, Recombinant CYB5R3 (Homo sapiens, UniProt P00387); experiment: Reduction of oxidized myoglobin by recombinant CYB5R3 (NADH-initiated, absorbance); type: biochemical
T1 sequence (P00387 1-301): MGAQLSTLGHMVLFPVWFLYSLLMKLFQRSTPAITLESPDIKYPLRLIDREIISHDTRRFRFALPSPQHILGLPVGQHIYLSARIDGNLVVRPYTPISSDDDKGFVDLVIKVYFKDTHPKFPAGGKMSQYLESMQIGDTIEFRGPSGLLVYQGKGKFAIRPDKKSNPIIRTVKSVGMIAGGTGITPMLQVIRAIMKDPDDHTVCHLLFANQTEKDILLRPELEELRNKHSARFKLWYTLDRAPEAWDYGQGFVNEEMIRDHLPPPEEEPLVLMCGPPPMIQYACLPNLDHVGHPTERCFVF
Method: FIGS. 2a-2c. Reduction of oxidized myoglobin by CYB5R3 is not affected by (FIG. 2a) oleic acid or (FIG. 2b) Q-OA (CoQ-linked oleic acid). Q-NA enhanced (FIG. 2c) CYB5R3 reduction of myoglobin. Error bars are S.E.M. and n=3.
Recombinant CYB5R3 was incubated with nitro-oleic acid, CoQ-linked oleic acid or Q-NA along with oxidized myoglobin. NADH stimulation initiated the reaction and absorbance changes were monitored which is indicative of myoglobin reduction. Q-NA increased myoglobin heme reduction whereas the other compounds had no effect (FIG. 2). Q-NA alone had no effect on myoglobin reduction.

[1] = tested on: RPS/RPL gene expression in human aortic endothelial cells; experiment: RPS/RPL gene transcription in human aortic endothelial cells (RNA sequencing); type: cell-based; details: 5 μM, 6 hours
Method: FIG. 9. NO2—OA and Q-NA stimulate divergent effects of RSP/RPL gene transcription in aortic endothelial cells.
Human aortic endothelial cells were stimulated with vehicle (dimethylsulfoxide, (DMSO)), 5 μM of NO2—OA, or 5 μM Q-NA. Following 6 hours of stimulation, cells were lysed and RNA sequencing was performed.

Compound	myoglobin heme reduction by CYB5R3 (Recombinant CYB5R3)	RPS/RPL gene expression compared to Q-NA treatment [1]
CCCCCCCC/C=C\CCCCCCCC(=O)O [oleic acid, octadece-9-noic acid]	not affected	
9-, 10-nitro octadece-9-noic acid [NO2—OA]	no effect	opposing effects

— patent publication US20240245627A1, “ALKENE QUINONE COMPOUNDS AND METHODS OF USE” (University of Pittsburgh - Of the Commonwealth System of …, priority 2021, published 2024)
